Assay results published in US20260137678A1, “METHODS FOR TREATING OR PREVENTING NEUROENDOCRINE TUMOR FORMATION USING XPO1 INHIBITORS” (priority 2022, published 2026).

Legend:
Type in all cases: cell-based
[1] = test system: control and TP53/RB1-inactivated 22PC (PRAD) cells; experiment: Monotherapy cytotoxicity assay (CellTiter-Glo viability); conditions: 5 nM selinexor; TP53/RB1 inactivation relative to wild-type controls or single gene loss-of-function counterparts
Description: (§1) FIGS. 2A-2E. Loss of TP53/RB1 function induces exportin 1 expression and sensitivity to selinexor. FIG. 2A: XPO1 mRNA expression in LUAD clinical specimens, categorized by their TP53/RB1 status. Data obtained from LUAD TCGA (PanCancer, n=237 wild type (wt), 33 mutated), LUAD OncoSG (OncoSG, Nat Genetics 2020, n=109 wt, 6 mutated) and PRAD TCGA (PanCancer, n=367 wt, 6 mutated)^14,15. FIG. 2B: Western blot showing exportin 1 protein abundance in isogenic H1563 (LUAD) and 22PC (PRAD) cell lines with or without induced loss of function of TP53 and/or RB1 and western blot quantification (n=2) (see methods). FIG. 2C: Barplot showing a representative biological replicate of an experiment assessing viability of control and TP53/RB1-loss (DKO) H1563, 22PC and LnCap (PRAD) cells treated with 5 nM selinexor. […] For FIGS. 2B-2C, p-values were calculated using the Student's t-test (unpaired, heterogeneous variances, two-tailed). p-value legend: *<0.05, **<0.01, ***<0.001. […]
(§2) Cytotoxic assays were performed as described in^22 with a total of 1,500 cells/well seeded in 96-well plates and treated with the drugs/doses described for 96 hours. Viability was assessed with the CellTiter-Glo 2.0 Assay (Promega, G9242) as indicated by manufacturer, and normalized to the untreated control wells.

[2] = test system: control and TP53/RB1-inactivated H1563 (LUAD) cells; experiment: as above; conditions: 5 nM selinexor; TP53/RB1 inactivation relative to wild-type controls or single gene loss-of-function counterparts
Description: as §1, §2

[3] = test system: control and TP53/RB1-inactivated LnCap/AR (PRAD) cells; experiment: as above; conditions: 5 nM selinexor; TP53/RB1 inactivation relative to wild-type controls
Description: as §1, §2

[4] = test system: TP53/RB1-inactivated 22PC and H1563 cell lines; experiment: Cell cycle assay by flow cytometry; conditions: 4 days, even at substantially cytotoxic concentrations of selinexor
Description: FIGS. 8D-8E: Proliferation assays were performed in TP53/RB1-inactivated 22PC and H 1563 cell lines and the cell cycle profile was assessed in those being treated with selinexor. […] Cell cycle was studied by flow cytometry. Cells were seeded in 6-well plates and treated for 4 days with selinexor at the indicated doses. At day 4, cells were washed with PBS (Lonza) and fixed in 70% ethanol for a maximum period of 1 week at 4° C. Next, cells were washed twice with PBS (Lonza) and incubated with FxCycle PI/RNAse Staining solution (Invitrogen) for 1 h at RT. Cell cycle was determined using a BD LSRFortessa cell analyzer (BD Bioscience) and cell cycle phases were determined using FlowJo® software v10.

O=C(/C=C\n1cnc(-c2cc(C(F)(F)F)cc(C(F)(F)F)c2)n1)NNc1cnccn1 [selinexor]
selinexor sensitivity (viability) [1]: increased selinexor sensitivity
selinexor sensitivity (viability) [2]: increased selinexor sensitivity
selinexor sensitivity (viability) [3]: increased selinexor sensitivity
cell cycle profile [4]: no significant shifts in cell cycle profile
